Results as given in ChEMBL document CHEMBL5500343, “Activity refinement of aryl amino acetamides that target the P. falciparum STAR-related lipid transfer 1 protein” (Eur J Med Chem, 2024).
≈ marks a conversion by molar mass, not a printed value.

What was measured:
Plasmodium falciparum [1] = experiment: Antimalarial activity against asexual blood stage Plasmodium falciparum 3D7 assessed as reduction in parasite growth incubated for 72 hrs by LDH assay; assay type: functional, organism-based; conditions: 3D7, 72 h
HepG2 = experiment: Cytotoxicity against human HepG2 cells assessed as reduction in cell viability incubated for 48 hrs by Cell Titer-Glo assay; assay type: functional, cell-based; conditions: HepG2, 48 h
Plasmodium falciparum [2] = experiment: Antimalarial activity against DDD-107498 resistant Plasmodium falciparum Dd2 harboring eEF2 Y86N mutant assessed as reduction in parasite growth incubated for 72 hrs by [3H]-hypoxanthine incorporation assay; assay type: functional, organism-based
Plasmodium falciparum [3] = experiment: Antimalarial activity against Plasmodium falciparum Dd2 assessed as reduction in parasite growth incubated for 72 hrs by [3H]-hypoxanthine incorporation assay; assay type: functional, organism-based
Plasmodium falciparum [4] = experiment: Antimalarial activity against ELQ-300 resistant Plasmodium falciparum Dd2 harboring Cyt b I22L mutant assessed as reduction in parasite growth incubated for 72 hrs by [3H]-hypoxanthine incorporation assay; assay type: functional, organism-based
Plasmodium falciparum [5] = experiment: Binding affinity to recombinant Plasmodium falciparum START1 assessed as change in enthalpy at 10 uM by isothermal titration calorimetry
Plasmodium falciparum [6] = experiment: Antimalarial activity against MMV006833 resistant Plasmodium falciparum 3D7 harboring START1 N309K mutant assessed as reduction in parasite growth incubated for 72 hrs by LDH assay; assay type: functional, organism-based; conditions: 3D7, 72 h
Plasmodium falciparum [7] = experiment: Antimalarial activity against MMV006833 resistant Plasmodium falciparum 3D7 assessed as reduction in parasite growth incubated for 72 hrs by LDH assay; assay type: functional, organism-based; conditions: 3D7, 72 h
[8] = Lipophilicity, LogD of compound in 1-Octanol and PBS at pH 7.4 at 7.5 uM incubated for 2 hrs shake flask method based LC-MS/MS analysis; assay type: physicochemical; conditions: 1-octanol/PBS
[9] = Intrinsic clearance in rat hepatocyte measured per 10^6 cells at 1 uM incubated upto 90 mins by LC-MS/MS analysis; assay type: ADME, cell-based; conditions: rat hepatocytes, read-out: CLH
Plasmodium falciparum [10] = experiment: Antimalarial activity against MMV006833 resistant Plasmodium falciparum 3D7 harboring START1 N330K mutant assessed as reduction in parasite growth incubated for 72 hrs by LDH assay; assay type: functional, organism-based; conditions: 3D7, 72 h
[11] = Kinetic aqueous solubility of the compound in PBS at pH 7.4 incubated for 2 hr under shaking condition by shake flask based UV reader plate analysis; assay type: physicochemical; conditions: read-out: Kinetic_solubility
[12] = Intrinsic clearance in human liver microsomes at 1 uM incubated upto 60 mins in presence of NADPH by LC-MS/MS analysis; assay type: ADME, Microsome; conditions: read-out: CLH
Plasmodium falciparum [13] = experiment: Binding affinity to recombinant Plasmodium falciparum START1 assessed as change in entropy at 10 uM by isothermal titration calorimetry
[14] = Binding affinity to recombinant Plasmodium falciparum START1 assessed as dissociation constant by isothermal titration calorimetry
Plasmodium falciparum [15] = experiment: Antimalarial activity against KAF-156 resistant Plasmodium falciparum Dd2 harboring CARL I1139K mutant assessed as reduction in parasite growth incubated for 72 hrs by [3H]-hypoxanthine incorporation assay; assay type: functional, organism-based
Plasmodium falciparum [16] = experiment: Antimalarial activity against MMV-048 resistant Plasmodium falciparum Dd2 harboring PI4K S743T mutant assessed as reduction in parasite growth incubated for 72 hrs by [3H]-hypoxanthine incorporation assay; assay type: functional, organism-based

Compound	EC50 (Plasmodium falciparum [1]) [nM]	EC50 (HepG2) [µM]	other results
Cc1cc(Cl)c(S(=O)(=O)N2CCOCC2)cc1NCC(=O)Nc1ccc(F)c(Cl)c1	130	> 40	–
Cc1cc(Cl)c(S(=O)(=O)N2CCOCC2)cc1OCC(=O)NC1CCCCC1	1600	> 40	–
O=C(NCCN1CCCC1)c1cc(-c2ccc(CN3CCOCC3)cc2)nc2ccc(F)cc12 [CABAMIQUINE]	–	–	EC50 (Plasmodium falciparum [2]): 850 nM
O=C(CNc1ccc(Cl)c(S(=O)(=O)N2CCC(Cc3ccccc3)CC2)c1)Nc1ccc(F)c(Cl)c1	270	14	–
O=C(Nc1ccc(F)c(Cl)c1)C(Nc1ccc(Cl)c(S(=O)(=O)N2CCOCC2)c1)c1ccccc1 (racemic)	6300	19.3	–
CCC(Nc1ccc(Cl)c(S(=O)(=O)N2CCOCC2)c1)C(=O)Nc1ccc(F)c(Cl)c1 (racemic)	11	24.5	–
O=C(CNc1ccc(Cl)c(S(=O)(=O)N2CCOCC2)c1)Nc1cc(Cl)ccn1	2800	> 40	–
COc1cc2[nH]c(C)c(-c3ccc(Oc4ccc(OC(F)(F)F)cc4)cc3)c(=O)c2cc1Cl	–	–	EC50 (Plasmodium falciparum [3]): 21 nM; EC50 (Plasmodium falciparum [4]): 180 nM
CCC[C@H](Nc1ccc(Cl)c(S(=O)(=O)N2CCOCC2)c1)C(=O)Nc1ccc(F)c(Cl)c1	140	16.3	–
O=C(CNc1ccc(Cl)c(S(=O)(=O)N2CCOCC2)c1)Nc1cccc(Cl)n1	8900	> 40	–
C[C@H](Nc1ccc(Cl)c(S(=O)(=O)N2CCOCC2)c1)C(=O)Nc1ccc(F)c(Cl)c1	22	> 40	deltaH (Plasmodium falciparum [5]): -17.7 kcal/mol; EC50 (Plasmodium falciparum [6]): 2100 nM; EC50 (Plasmodium falciparum [7]): 3 nM; logD at 2 h, 7.5 µM [8]: 3.9; hepatocyte CLint at 1 µM [9]: > 92 µL/min/1e6 cells; EC50 (Plasmodium falciparum [10]): 1700 nM; solubility kinetic at 2 h [11]: 14 µM (≈ 6.67 µg/mL); microsomal CLint at 1 µM [12]: > 462 µL/min/mg; -TdeltaS (Plasmodium falciparum [13]): 7.8 kcal/mol; Kd [14]: 66 nM
O=C(CNc1ccc(Cl)c(S(=O)(=O)N2CCOCC2)c1)Nc1cccc(OC(F)(F)F)c1	5000	19.8	–
CCC(C)[C@H](Nc1ccc(Cl)c(S(=O)(=O)N2CCOCC2)c1)C(=O)Nc1ccc(F)c(Cl)c1 (stereo partly specified)	27	10.9	EC50 (Plasmodium falciparum [6]): 2100 nM; EC50 (Plasmodium falciparum [7]): 15 nM; EC50 (Plasmodium falciparum [10]): 1600 nM
CC(=O)N1CCN(S(=O)(=O)c2cc(NCC(=O)Nc3ccc(F)c(Cl)c3)ccc2Cl)CC1	9100	> 40	–
O=C(CNc1ccc(F)c(S(=O)(=O)N2CCOCC2)c1)Nc1ccc(F)c(Cl)c1	400	–	–
CC1CCN(S(=O)(=O)c2cc(NCC(=O)Nc3ccc(F)c(Cl)c3)ccc2Cl)CC1	260	26.8	–
CC1(C)c2nc(-c3ccc(F)cc3)c(Nc3ccc(F)cc3)n2CCN1C(=O)CN [GANAPLACIDE]	–	–	EC50 (Plasmodium falciparum [3]): 8 nM; EC50 (Plasmodium falciparum [15]): 1530 nM
C[C@@H](Nc1ccc(Cl)c(S(=O)(=O)N2CCOCC2)c1)C(=O)Nc1cncc(Cl)c1	1100	> 40	–
O=C(CNc1ccc(Cl)c(S(=O)(=O)N2CCOCC2)c1)Nc1cccc(Cl)c1	280	> 40	–
Cc1ccc(NCC(=O)Nc2cccc(C(F)(F)F)c2)cc1S(=O)(=O)N1CCOCC1	3800	> 40	–
O=C(Nc1ccc(F)c(Cl)c1)C(Cc1ccccc1)Nc1ccc(Cl)c(S(=O)(=O)N2CCOCC2)c1 (racemic)	1400	15.5	–
CN(C)C1CCN(S(=O)(=O)c2cc(NCC(=O)Nc3ccc(F)c(Cl)c3)ccc2Cl)CC1	> 10000	> 40	–

Compound	EC50 (Plasmodium falciparum [1]) [nM]	EC50 (HepG2) [µM]	other results
Cc1cc(Cl)c(S(=O)(=O)N2CCOCC2)cc1OCC(=O)Nc1ccc(F)c(Cl)c1	300	> 40	–
O=C(COc1ccc(Cl)c(S(=O)(=O)N2CCOCC2)c1)NC1CCCCC1	4300	> 40	–
N#Cc1cccc(NC(=O)CNc2ccc(Cl)c(S(=O)(=O)N3CCOCC3)c2)c1	1500	> 40	–
Cc1ccc(NCC(=O)Nc2ccc(F)c(Cl)c2)cc1S(=O)(=O)N1CCOCC1	270	–	–
CN1CCC(NS(=O)(=O)c2cc(NCC(=O)Nc3ccc(F)c(Cl)c3)ccc2Cl)CC1	> 10000	> 40	–
CS(=O)(=O)c1ccc(-c2cnc(N)c(-c3ccc(C(F)(F)F)nc3)c2)cc1 [MMV-048]	–	–	EC50 (Plasmodium falciparum [16]): 120 nM; EC50 (Plasmodium falciparum [3]): 16 nM
Cc1cc(Cl)c(S(=O)(=O)N2CCOCC2)cc1NCC(=O)NC1CCCCC1	1000	> 40	–
O=C(CNc1ccc(Cl)c(S(=O)(=O)N2CCOCC2)c1)Nc1cncc(Cl)c1	410	> 40	–
N#Cc1ccc(NCC(=O)Nc2ccc(F)c(Cl)c2)cc1S(=O)(=O)N1CCOCC1	750	> 40	–
COC1CCN(S(=O)(=O)c2cc(NCC(=O)Nc3ccc(F)c(Cl)c3)ccc2Cl)CC1	1500	> 40	–
C[C@@H](Nc1ccc(Cl)c(S(=O)(=O)N2CCOCC2)c1)C(=O)Nc1ccc(F)c(Cl)c1	320	> 40	deltaH (Plasmodium falciparum [5]): -16.1 kcal/mol; EC50 (Plasmodium falciparum [6]): 4300 nM; EC50 (Plasmodium falciparum [7]): 99 nM; EC50 (Plasmodium falciparum [10]): 4400 nM; -TdeltaS (Plasmodium falciparum [13]): 6.7 kcal/mol; Kd [14]: 138 nM
CN1CCN(S(=O)(=O)c2cc(NCC(=O)Nc3ccc(F)c(Cl)c3)ccc2Cl)CC1	> 10000	> 40	–
COc1ccc(NCC(=O)Nc2ccc(F)c(Cl)c2)cc1S(=O)(=O)N1CCOCC1	430	> 40	–
Cc1ccc(NCC(=O)Nc2cccc(Cl)c2)cc1S(=O)(=O)N1CCOCC1	360	> 40	–
C[C@H](Nc1ccc(Cl)c(S(=O)(=O)N2CCOCC2)c1)C(=O)Nc1cncc(Cl)c1	54	> 40	deltaH (Plasmodium falciparum [5]): -14.4 kcal/mol; EC50 (Plasmodium falciparum [6]): 7800 nM; EC50 (Plasmodium falciparum [7]): 16 nM; logD at 2 h, 7.5 µM [8]: 3.1; hepatocyte CLint at 1 µM [9]: 50 µL/min/1e6 cells; EC50 (Plasmodium falciparum [10]): 2600 nM; solubility kinetic at 2 h [11]: 77 µM (≈ 35.4 µg/mL); microsomal CLint at 1 µM [12]: > 462 µL/min/mg; -TdeltaS (Plasmodium falciparum [13]): 4.8 kcal/mol; Kd [14]: 119 nM
O=C(COc1ccc(Cl)c(S(=O)(=O)N2CCOCC2)c1)Nc1ccc(F)c(Cl)c1	810	> 40	–
CC(C)CC(Nc1ccc(Cl)c(S(=O)(=O)N2CCOCC2)c1)C(=O)Nc1ccc(F)c(Cl)c1 (racemic)	850	9.5	–
CC(C)[C@H](Nc1ccc(Cl)c(S(=O)(=O)N2CCOCC2)c1)C(=O)Nc1ccc(F)c(Cl)c1	33	30.3	EC50 (Plasmodium falciparum [6]): 2400 nM; EC50 (Plasmodium falciparum [7]): 5 nM; EC50 (Plasmodium falciparum [10]): 2100 nM
Cc1cc(Cl)c(S(=O)(=O)N2CCCC2)cc1OCC(=O)NC1CCCCC1	–	–	Kd [14]: 42 nM
Cc1ccc(NCC(=O)Nc2ccccc2)cc1S(=O)(=O)N1CCOCC1	2100	> 40	–
O=C(Nc1ccc(F)c(Cl)c1)[C@@H]1CCCCN1c1ccc(Cl)c(S(=O)(=O)N2CCOCC2)c1	420	21	–
O=C(CNc1ccc(Cl)c(S(=O)(=O)N2CCOCC2)c1)Nc1ccnc(Cl)c1	1100	> 40	–
